Source: patent publication US11680078B2, “Anticancer compounds” (GODAVARI BIOREFINERIES LIMITED, priority 2017, dated 2023)
Like-named read-outs stand apart in the source and are kept apart here.

How the values were obtained:
PC3 [1] = experiment: MTT antiproliferative assay, PC3; assay type: cell-based; details: Homo sapiens, PC-3; PC3 prostate cell line, 48 hrs drug incubation
Protocol: (§1) MTT assay is a simple and sensitive assay where, metabolic reducing activity of the cells is measured. The increase of this activity in time is taken as a parameter of cell growth. If treatment with a drug impairs this increase, the action may be a consequence of growth inhibition, cell killing or both. The compounds of Formula V to XIV of the present invention, standard cytotoxic drug (e.g. Cisplatin) were tested at different concentrations (1, 0.1, 0.01, 0.001 mM) using breast and prostate cancer cell lines. All cell lines were cultured in a 37° C. incubator with a 5% CO2 environment. Compounds were dissolved in DMSO with a concentration of 0.1M (stock solution). Cells were seeded into 96-well plates at suitable plating efficiency.
(§2) Following Plating Efficiencies were Standardized for MTT Assay:
(§3) The MTT procedure followed was as follows. Briefly, the cells were plated in 96 well plate as per predetermined plating efficiency (Table 1) The plates were then incubated for 24 hrs in 5% CO2 atmosphere at 37° C. Appropriate concentrations of the drugs were then added to the plate and further incubation was carried out for 48 hrs (in 5% CO2 atmosphere at 37° C.). The assay plate was then centrifuged twice at 3000 rpm for 3 mins and supernatant was then discarded. 100 ul of MTT solution (0.5 mg/ml) was then added to each well of the plate and it was further incubated for 4 hrs (in 5% CO2 atmosphere at 37° C.) Following 4 hr incubation, the plate was then centrifuged twice, and supernatant was aspirated off very carefully. 200 ul of DMSO was then added to each well to solubilize. MTT crystals and mixed well by shaking the plate. XY graph of log Percent viability was then plotted against log drug concentration. […] (Drug concentration inhibiting the 50% of cell population) was then calculated by regression analysis.

MCF7 = experiment: MTT antiproliferative assay, MCF7; assay type: cell-based; details: Homo sapiens, MCF7; MCF-7 breast cell line, 48 hrs drug incubation
Protocol: as §1, §2, §3

normal lymphocytes [2] = experiment: Normal cell assay (MTT) on lymphocytes from a healthy donor
Protocol: (§10) In order to test the activity of cytotoxic drugs towards normal cells, we performed MTT
(§11) Assay for these cytotoxic drugs using lymphocytes obtained from a healthy donor.
(§12) Briefly, diluted defibrinated fresh blood was overlaid gradually on HiSeP LSM1077 and centrifuged at low speed for 30 mins. The lymphocyte layer (the buffy coat) (Fig) was carefully removed in a new collection tube. The buffy coat was given another wash, by the diluent buffer, to reduce the platelet contamination. The supernatant was discarded, and the pellet was resuspended in diluent buffer. The viability was checked by Haemocytometer. Cells with Viability and Purity of 95% and more were considered for the assay. MTT assay was performed with these cells as described above with plating efficiency of 0.7 million/ml.

spheres of MDAMB231 = experiment: In vitro sphere-forming assay, MDAMB231 in Mammosphere media; assay type: cell-based; details: 2000 cells/well, n = 6 ± S.D
Description: (§4) Sphere assay measures the ability of Cancer Stein Cells to form spheres in specially designed serum-free medium. We have used this assay to measure the killing efficiency of the test compounds as compared to the standard chemotherapeutic drug, Cisplatin.
(§5) Materials and Reagents:50× B27 Supplement (Life Technologies, Invitrogen, Catalog No.: 17502-044), Fibroblast Growth Factor (FGF) (Sigma-Aldrich, Catlog No.: F029125), Epidermal Growth Factor (EGF) (Sigma-Aldrich, Catlog No.: E9644), Insulin (Sigma, Catlog No.: 19278), Dulbecco's Modified Eagle Medium/F12 (HiMedia Catlog No.: AL139-6), Dulbecco's Phosphate Buffered Saline (HiMedia Catlog No.: TL1006), Trypan Blue (TC193), Prostate Epithelial Media (LONZA, Catlog No.: CC-3166) MEGM (LONZA, Catlog No.: CC-3051), Heparin (Sigma, Catlog No.: H3393), Penstrep (HiMedia, Catlog No.: A002)
Mammosphere Media Preparation (For 100 mL): 1 g methyl cellulose autoclaved with magnetic stirrer Plain media (MEBM), 100 mL added and dissolved under magnetic stirring. After complete dissolution, add: FGF-80 μL, EGF-40 μL, Penstrep-1 mL, Heparin-400 μL.
(§6) Procedure: —The cells were trypsinised and made into single-cell suspension by passing through cell strainers ([…], respectively), The cells were diluted at the concentration of 2000 cells/100 μL and suspended in either Mammosphere (for breast cell lines) or Prostosphere (for prostate cell lines). 100 μL of this suspension was added into each well of 96-well suspension plates and incubated at 37° C., 5% CO2 for 24 hrs. Appropriate concentrations of the drugs (2 μL) were added into respective wells with 100 μL of stem cell culture medium. Plates were incubated at 37° C., 5% CO2 for 72 hrs. After incubation 2.5 μL of the respective drug concentration and 50 μL of stem cell culture medium were added into each well and the plates were further incubated at 37° C., 5% CO2 for 72 hrs. 3 μL of the respective drug concentration was added with 50 μL of stem cell culture medium again after incubation and plates were incubated again for 72 hrs at 37° C., 5% CO2. Number of primary spheres formed for each concentration was counted. A comparative graph of number of spheres formed was plotted against the concentration and the growth curve was compared with the positive control.

spheres of PC3 = experiment: In vitro sphere-forming assay, PC3 in Prostosphere media; assay type: cell-based; details: 2000 cells/well, n = 6 ± S.D
Description: as §4, §5
Prostosphere Media Preparation (For 100 mL):1 g methyl cellulose autoclaved with magnetic stirrer, Plain media (Prostate Epithelial Basal Medium), 100 mL added and dissolved, under magnetic stirring. After complete dissolution, add: Insulin-40 μL, B27-2 mL, EGF-80 μL, Penstrep-1 ml.
as §6

MDAMB231 [3] = experiment: Soft Agar colony-formation Assay, MDAMB231; assay type: cell-based; details: Homo sapiens, MDA-MB-231, 168 h; MDAMB231 breast cell line, 1 week
Protocol: (§7) The Soft Agar Colony-formation Assay is an anchorage-independent growth assay in soft agar, which is one of the most stringent assays for detecting malignant transformation of cells. For this assay, malignant cells are cultured with appropriate controls in soft agar medium for 1-2 weeks. Following this incubation period, formed colonies can either be analyzed morphologically using cell stain and quantifying the number of colonies formed.
(§8) Briefly, for Soft Agar Assay a mixture of 50 ul of 2× medium (taken appropriately as per cell line) and 50 ul of 1.2% Bacto Agar were plated on to each well of 96 well micro titer assay plate. 10 ul of cells (Of specific plating efficiency pre-standardized for respective cell line) were mixed with 20 ul of 2× medium and 30 ul of 0.8% of Bacto Agar and 1.6 ul of drug (of appropriate concentration) in a vial and transferred to the solidified pre-layers of the assay plates. The cells were then allowed to grow and form colonies at 37° C. and 5% CO2 for 1 week. An intermittent feeding with 50 ul of appropriate 2× medium was performed after 3 days of experimental set up. 16 ul of Alamar Blue (1.5 mg/ml) was then added to all the wells to quantify the developed colonies. The plates were incubated for 24 hrs at 37° C. Absorbance was then measured at 630 nm. XY graph of log Percent viability was then plotted against log drug concentration. IC50 (Drug concentration inhibiting the 50% of cell population) was then calculated by regression analysis.
(§9) Following Plating Efficiencies Were Standardized for Soft Agar Assay: […]

MDAMB231 [4] = experiment: MTT antiproliferative assay, MDAMB231; assay type: cell-based; details: Homo sapiens, MDA-MB-231; MDAMB231 breast cell line, 48 hrs drug incubation
Protocol: as §1, §2, §3

PC3 [5] = experiment: Soft Agar colony-formation Assay, PC3; assay type: cell-based; details: Homo sapiens, PC-3, 168 h; PC3 prostate cell line, 1 week
Protocol: as §7, §8, §9

DU145 = experiment: MTT antiproliferative assay, DU145; assay type: cell-based; details: Homo sapiens, DU-145; DU145 prostate cell line, 48 hrs drug incubation
Protocol: as §1, §2, §3

normal lymphocytes [6] = tested on: normal lymphocytes
Protocol: as §10, §11, §12

SMILES	IC50 (PC3 [1])	IC50 (MCF7)	activity on normal lymphocytes (normal lymphocytes [2])	3D sphere count of MDAMB231 (spheres of MDAMB231; drug conc 0.025 uM)	3D sphere count of MDAMB231 (spheres of MDAMB231; drug conc 0.25 uM)	3D sphere count of MDAMB231 (spheres of MDAMB231; drug conc 2.5 uM)	3D sphere count of MDAMB231 (spheres of MDAMB231; drug conc 25 uM)	3D sphere count of MDAMB231 (spheres of MDAMB231; drug conc 250 uM)	3D sphere count of PC3 (spheres of PC3; drug conc 0.025 uM)	3D sphere count of PC3 (spheres of PC3; drug conc 0.25 uM)	3D sphere count of PC3 (spheres of PC3; drug conc 2.5 uM)	3D sphere count of PC3 (spheres of PC3; drug conc 25 uM)	3D sphere count of PC3 (spheres of PC3; drug conc 250 uM)	IC50 (MDAMB231 [3])	IC50 (MDAMB231 [4])	IC50 (PC3 [5])	IC50 (DU145)	activity on normal lymphocytes (normal lymphocytes [6])
COc1cc2c(OC(=O)C(c3ccccc3)C3CCCC3)c3c(c(-c4ccc5c(c4)OCO5)c2cc1OC)C(=O)OC3 (stereo not shown) [Formula VIII, 9-(benzo[d][1,3]dioxol-5-yl)-6,7-dimethoxy-1-oxo-1,3-dihydronaphtho[2,3-c]furan-4-yl 2-cyclopentyl-2-phenylacetate]	3.91 µM	1.05 µM	does not show activity	36(±3)	29(±4)	13(±2)	8(±2)	0(±0)	29(±3)	24(±3)	13(±3)	8(±2)	0(±0)	1.32 µM	3.14 µM	1.96 µM	4.28 µM	
COc1cc2c(OC(=O)c3cccn3C)c3c(c(-c4ccc5c(c4)OCO5)c2cc1OC)C(=O)OC3 [Formula VII, 9-(benzo[d][1,3]dioxol-5-yl)-6,7-dimethoxy-1-oxo-1,3-dihydronaphtho[2,3-c]furan-4-yl 1-methyl-1H-pyrrole-2-carboxylate]	6.32 µM	2.78 µM	does not show activity	47(±4)	46(±7)	40(±7)	40(±3)	0(±0)	64(±8)	31(±5)	23(±3)	9(±2)	0(±0)	7.91 µM	2.04 µM	0.36 µM	3.57 µM	
CO[C@H]1[C@H](OC)COC(Oc2ccc(-c3ccc4c(c3)OCO4)c3ccccc23)[C@@H]1O (stereo partly drawn) [Formula V, (3R,4R,5R)-2-(4-(benzo[d][1,3]dioxol-5-yl)naphthalen-1-yloxy)-4,5-dimethoxy-tetrahydro-2H-pyran-3-ol]	6.19 µM			40(±3)	24(±3)	12(±1)	7(±2)	0(±0)	50(±5)	40(±5)	36(±3)	21(±4)	0(±0)	3.45 µM	4.61 µM	10.6 µM		does not show activity
